Source: ChEMBL document CHEMBL5143696, “Discovery of novel benzothiophene derivatives as potent and narrow spectrum inhibitors of DYRK1A and DYRK1B” (Bioorg Med Chem Lett, 2022)
Active and inactive are the calls of the source. The rule behind the calls is not given here.

Assays:
[1] = target: T1, Dual specificity tyrosine-phosphorylation-regulated kinase 1A (Homo sapiens, UniProt Q13627); experiment: Inhibition of NanoLuc-fused human DYRK1A expressed in HEK293 cells using Nano-Glo as substrate incubated for 2 hrs by NanoBRET assay; assay type: cell-based
[2] = target: T1, Dual specificity tyrosine-phosphorylation-regulated kinase 1A; experiment: Inhibition of human DYRK1A incubated for 90 mins in presence of ATP by Z-LYTE based FRET assay
[3] = target: T2, Dual specificity tyrosine-phosphorylation-regulated kinase 1B (Homo sapiens, UniProt Q9Y463); experiment: Inhibition of human DYRK1B incubated for 130 mins in presence of ATP by ADP-Glo kinase assay
Target sequence in this assay (Q9Y463 whole entry, the tested form may be a part): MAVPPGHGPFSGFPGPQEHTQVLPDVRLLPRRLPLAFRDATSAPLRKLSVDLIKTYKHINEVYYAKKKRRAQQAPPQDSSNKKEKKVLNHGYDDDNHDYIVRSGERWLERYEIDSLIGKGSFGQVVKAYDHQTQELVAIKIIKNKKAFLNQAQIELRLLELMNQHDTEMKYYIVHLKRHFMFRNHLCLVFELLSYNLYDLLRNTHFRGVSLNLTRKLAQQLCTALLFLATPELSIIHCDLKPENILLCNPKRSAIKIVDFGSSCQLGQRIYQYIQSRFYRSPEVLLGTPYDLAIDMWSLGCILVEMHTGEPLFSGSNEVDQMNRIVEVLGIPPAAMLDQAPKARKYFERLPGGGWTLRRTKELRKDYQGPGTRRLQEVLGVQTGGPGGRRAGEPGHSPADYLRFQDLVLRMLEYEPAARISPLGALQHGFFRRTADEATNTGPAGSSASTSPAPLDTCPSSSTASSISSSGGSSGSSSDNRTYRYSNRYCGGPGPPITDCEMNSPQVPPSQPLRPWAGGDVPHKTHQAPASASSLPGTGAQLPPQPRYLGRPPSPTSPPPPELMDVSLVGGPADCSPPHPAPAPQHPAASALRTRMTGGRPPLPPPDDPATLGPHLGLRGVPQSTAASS

[4] = target: T2, Dual specificity tyrosine-phosphorylation-regulated kinase 1B; experiment: Inhibition of NanoLuc-fused human DYRK1B expressed in HEK293T cells using Nano-Glo as substrate incubated for 2 hrs by NanoBRET assay; assay type: cell-based
Target sequence in this assay (Q9Y463 whole entry, the tested form may be a part): as above

HeLa [5] = experiment: Cytotoxicity against human HeLa cells assessed as reduction in cell viability at 30 uM incubated for 24 hrs in presence of staurosporine by MTT assay; assay type: functional, cell-based
HeLa [6] = experiment: Cytotoxicity against human HeLa cells assessed as cell viability at 30 uM incubated for 24 hrs by MTT assay; assay type: functional; conditions: read-out: Activity
[7] = target: T3, Serine/threonine-protein kinase PRP4 homolog (Homo sapiens, UniProt Q13523); experiment: Inhibition of human PRP4 using casein as substrate at 1 uM incubated for 120 mins in presence of [gamma-33P-ATP] by radiometric scintillation assay
[8] = target: T3, Serine/threonine-protein kinase PRP4 homolog; experiment: Inhibition of DNA-tagged human PRP4 expressed in Escherichia coli incubated for 1.5 hrs by KINOMEscan assay
[9] = target: Cyclin-dependent kinase 6 (Homo sapiens) (UniProt Q00534); experiment: Inhibition of N-terminal GST-tagged full length human recombinant CDK6 expressed in Sf9 insect cells at 1 uM incubated for 60 mins in presence of [gamma33P]ATP by microplate scintillation counter relative to control
[10] = target: Cyclin-dependent kinase 16 (Homo sapiens) (UniProt Q00536); experiment: Inhibition of His6-tagged full length human recombinant CDK16 expressed in Sf9 insect cells at 1 uM incubated for 60 mins in presence of [gamma33P]ATP by microplate scintillation counter relative to control
[11] = target: Cyclin-dependent kinase 4 (Homo sapiens) (UniProt P11802); experiment: Inhibition of N-terminal GST-tagged full length human recombinant CDK4 expressed in Sf9 insect cells at 1 uM incubated for 60 mins in presence of [gamma33P]ATP by microplate scintillation counter relative to control
[12] = target: T4, Inhibitor of nuclear factor kappa-B kinase subunit alpha (Homo sapiens) (UniProt O15111); experiment: Inhibition of full length human recombinant IKKalpha expressed in baculovirus infected Sf9 cells at 1 uM incubated for 60 mins in presence of [gamma33P]ATP by microplate scintillation counter relative to control
T4 sequence (whole entry): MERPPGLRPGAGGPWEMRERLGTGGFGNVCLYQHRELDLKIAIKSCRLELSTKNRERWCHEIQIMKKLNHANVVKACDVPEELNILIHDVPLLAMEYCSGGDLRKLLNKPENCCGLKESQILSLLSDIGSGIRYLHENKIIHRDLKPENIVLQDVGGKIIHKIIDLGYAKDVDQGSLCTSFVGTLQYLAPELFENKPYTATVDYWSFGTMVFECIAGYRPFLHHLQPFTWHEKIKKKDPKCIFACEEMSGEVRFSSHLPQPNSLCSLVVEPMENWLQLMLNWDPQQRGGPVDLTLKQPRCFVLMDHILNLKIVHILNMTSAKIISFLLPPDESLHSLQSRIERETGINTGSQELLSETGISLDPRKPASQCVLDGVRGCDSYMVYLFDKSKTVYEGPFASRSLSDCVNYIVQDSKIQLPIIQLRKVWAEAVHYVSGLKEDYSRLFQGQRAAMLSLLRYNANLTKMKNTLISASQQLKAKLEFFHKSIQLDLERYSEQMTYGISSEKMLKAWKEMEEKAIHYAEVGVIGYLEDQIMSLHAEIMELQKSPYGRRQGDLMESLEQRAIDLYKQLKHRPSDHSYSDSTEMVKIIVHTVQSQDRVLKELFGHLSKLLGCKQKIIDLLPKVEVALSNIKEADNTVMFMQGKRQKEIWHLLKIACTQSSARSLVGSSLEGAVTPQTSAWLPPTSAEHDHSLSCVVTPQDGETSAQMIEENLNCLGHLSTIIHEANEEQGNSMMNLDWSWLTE

[13] = target: T1, Dual specificity tyrosine-phosphorylation-regulated kinase 1A; experiment: Inhibition of human DYRK1A expressed in Sf9 insect cells at 1 uM incubated for 60 mins in presence of [gamma33P]ATP by microplate scintillation counter relative to control
[14] = target: Mitogen-activated protein kinase 7 (Homo sapiens) (UniProt Q13164); experiment: Inhibition of N-terminal recombinant human ERK5 expressed in Sf9 insect cells at 1 uM incubated for 60 mins in presence of [gamma33P]ATP by microplate scintillation counter relative to control
[15] = target: Serine/threonine-protein kinase pim-3 (Homo sapiens) (UniProt Q86V86); experiment: Inhibition of His6-tagged full length human recombinant PIM3 expressed in Sf9 insect cells at 1 uM incubated for 60 mins in presence of [gamma33P]ATP by microplate scintillation counter relative to control
[16] = target: Serine/threonine-protein kinase pim-1 (Homo sapiens) (UniProt P11309); experiment: Inhibition of His6-tagged full length human recombinant PIM1 expressed in Sf9 insect cells at 1 uM incubated for 60 mins in presence of [gamma33P]ATP by microplate scintillation counter relative to control
[17] = target: Cyclin-dependent kinase 8 (Homo sapiens) (UniProt P49336); experiment: Inhibition of N-terminal GST-tagged full length human recombinant CDK8 expressed in Sf9 insect cells at 1 uM incubated for 60 mins in presence of [gamma33P]ATP by microplate scintillation counter relative to control
[18] = target: Cyclin-dependent kinase 5 (Homo sapiens) (UniProt Q00535); experiment: Inhibition of N-terminal GST-tagged full length human recombinant CDK5 expressed in Sf9 insect cells at 1 uM incubated for 60 mins in presence of [gamma33P]ATP by microplate scintillation counter relative to control
[19] = target: T5, Serine/threonine-protein kinase TAO3 (Homo sapiens) (UniProt Q9H2K8); experiment: Inhibition of full length human recombinant TAOK3 expressed in baculovirus infected Sf9 cells at 1 uM incubated for 60 mins in presence of [gamma33P]ATP by microplate scintillation counter relative to control
T5 sequence (whole entry): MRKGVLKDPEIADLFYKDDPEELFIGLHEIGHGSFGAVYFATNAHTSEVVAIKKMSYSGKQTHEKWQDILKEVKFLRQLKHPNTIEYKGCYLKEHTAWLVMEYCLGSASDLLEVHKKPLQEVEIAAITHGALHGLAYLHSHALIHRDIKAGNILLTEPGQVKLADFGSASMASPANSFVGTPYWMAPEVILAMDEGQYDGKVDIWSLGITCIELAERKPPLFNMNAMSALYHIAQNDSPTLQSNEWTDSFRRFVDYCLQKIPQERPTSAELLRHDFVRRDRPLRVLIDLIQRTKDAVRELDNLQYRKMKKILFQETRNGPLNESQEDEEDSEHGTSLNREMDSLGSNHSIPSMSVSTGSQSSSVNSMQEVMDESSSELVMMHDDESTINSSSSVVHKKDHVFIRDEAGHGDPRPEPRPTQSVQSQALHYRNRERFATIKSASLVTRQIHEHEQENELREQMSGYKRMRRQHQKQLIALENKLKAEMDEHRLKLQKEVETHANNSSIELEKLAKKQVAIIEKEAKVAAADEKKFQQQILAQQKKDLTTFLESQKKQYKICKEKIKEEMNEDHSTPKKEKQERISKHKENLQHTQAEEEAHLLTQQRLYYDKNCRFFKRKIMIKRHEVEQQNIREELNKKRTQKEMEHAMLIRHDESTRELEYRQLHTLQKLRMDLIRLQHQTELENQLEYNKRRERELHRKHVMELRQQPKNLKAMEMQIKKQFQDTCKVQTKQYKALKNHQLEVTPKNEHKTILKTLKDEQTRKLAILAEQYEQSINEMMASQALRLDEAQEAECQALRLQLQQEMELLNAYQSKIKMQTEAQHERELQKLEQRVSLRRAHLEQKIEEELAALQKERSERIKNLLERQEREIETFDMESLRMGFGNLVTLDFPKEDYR

[20] = Inhibition of His6-tagged full length human recombinant CDK11 expressed in Sf9 insect cells at 1 uM incubated for 60 mins in presence of [gamma33P]ATP by microplate scintillation counter relative to control
[21] = target: T2, Dual specificity tyrosine-phosphorylation-regulated kinase 1B; experiment: Inhibition of human DYRK1B expressed in Sf9 insect cells at 1 uM incubated for 60 mins in presence of [gamma33P]ATP by microplate scintillation counter relative to control
Target sequence in this assay (Q9Y463 whole entry, looked up, the tested form may be a part): as the sequence (Q9Y463 whole entry, the tested form may be a part) above

T3 sequence (Q13523 whole entry): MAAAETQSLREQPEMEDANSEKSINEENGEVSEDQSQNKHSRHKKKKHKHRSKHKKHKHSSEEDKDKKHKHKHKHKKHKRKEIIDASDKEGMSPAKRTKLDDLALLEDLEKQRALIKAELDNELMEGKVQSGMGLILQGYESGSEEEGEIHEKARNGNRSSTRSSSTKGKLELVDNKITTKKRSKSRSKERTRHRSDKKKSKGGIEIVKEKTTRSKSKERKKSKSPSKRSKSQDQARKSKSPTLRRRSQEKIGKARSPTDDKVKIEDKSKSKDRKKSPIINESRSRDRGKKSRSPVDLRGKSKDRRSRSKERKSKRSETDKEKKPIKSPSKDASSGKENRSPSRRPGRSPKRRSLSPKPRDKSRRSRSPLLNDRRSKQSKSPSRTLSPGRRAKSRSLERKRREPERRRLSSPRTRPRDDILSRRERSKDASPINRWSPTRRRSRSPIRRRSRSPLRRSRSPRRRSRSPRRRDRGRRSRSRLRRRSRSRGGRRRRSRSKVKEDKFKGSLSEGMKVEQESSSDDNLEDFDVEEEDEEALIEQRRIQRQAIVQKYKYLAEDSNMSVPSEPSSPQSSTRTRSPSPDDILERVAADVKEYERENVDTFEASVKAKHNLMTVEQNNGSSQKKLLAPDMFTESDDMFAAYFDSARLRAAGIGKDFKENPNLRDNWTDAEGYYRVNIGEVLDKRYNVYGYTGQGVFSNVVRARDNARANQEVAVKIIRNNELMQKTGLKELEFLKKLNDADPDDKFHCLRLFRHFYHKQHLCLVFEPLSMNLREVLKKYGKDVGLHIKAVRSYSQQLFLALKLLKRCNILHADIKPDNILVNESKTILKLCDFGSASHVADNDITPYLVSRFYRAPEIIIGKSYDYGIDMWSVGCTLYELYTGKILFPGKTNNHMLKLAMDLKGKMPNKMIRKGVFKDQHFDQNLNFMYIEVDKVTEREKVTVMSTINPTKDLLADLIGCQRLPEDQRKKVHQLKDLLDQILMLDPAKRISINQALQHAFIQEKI
Cyclin-dependent kinase 8 (Homo sapiens), sequence (P49336 whole entry): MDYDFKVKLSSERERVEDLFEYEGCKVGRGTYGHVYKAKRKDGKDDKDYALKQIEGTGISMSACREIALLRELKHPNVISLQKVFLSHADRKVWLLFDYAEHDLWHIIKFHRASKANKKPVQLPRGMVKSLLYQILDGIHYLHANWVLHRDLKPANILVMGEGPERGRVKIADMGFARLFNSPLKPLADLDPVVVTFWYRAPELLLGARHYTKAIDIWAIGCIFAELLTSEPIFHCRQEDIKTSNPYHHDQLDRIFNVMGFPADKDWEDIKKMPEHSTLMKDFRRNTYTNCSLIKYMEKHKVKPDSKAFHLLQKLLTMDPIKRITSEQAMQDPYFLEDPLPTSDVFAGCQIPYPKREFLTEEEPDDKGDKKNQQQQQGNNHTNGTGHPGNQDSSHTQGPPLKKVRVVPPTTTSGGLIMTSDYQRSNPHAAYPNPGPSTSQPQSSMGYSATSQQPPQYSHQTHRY
Cyclin-dependent kinase 5 (Homo sapiens), sequence (Q00535 whole entry, looked up): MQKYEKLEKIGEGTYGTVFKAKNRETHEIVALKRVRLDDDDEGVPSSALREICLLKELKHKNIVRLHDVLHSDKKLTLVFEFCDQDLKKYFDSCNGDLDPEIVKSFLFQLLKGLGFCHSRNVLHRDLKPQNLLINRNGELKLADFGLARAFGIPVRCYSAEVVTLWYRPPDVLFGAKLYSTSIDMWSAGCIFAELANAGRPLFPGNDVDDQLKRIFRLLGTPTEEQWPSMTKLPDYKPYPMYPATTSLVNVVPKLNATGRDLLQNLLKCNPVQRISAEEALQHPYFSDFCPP
Mitogen-activated protein kinase 7 (Homo sapiens), sequence (Q13164 2-816 limits assumed): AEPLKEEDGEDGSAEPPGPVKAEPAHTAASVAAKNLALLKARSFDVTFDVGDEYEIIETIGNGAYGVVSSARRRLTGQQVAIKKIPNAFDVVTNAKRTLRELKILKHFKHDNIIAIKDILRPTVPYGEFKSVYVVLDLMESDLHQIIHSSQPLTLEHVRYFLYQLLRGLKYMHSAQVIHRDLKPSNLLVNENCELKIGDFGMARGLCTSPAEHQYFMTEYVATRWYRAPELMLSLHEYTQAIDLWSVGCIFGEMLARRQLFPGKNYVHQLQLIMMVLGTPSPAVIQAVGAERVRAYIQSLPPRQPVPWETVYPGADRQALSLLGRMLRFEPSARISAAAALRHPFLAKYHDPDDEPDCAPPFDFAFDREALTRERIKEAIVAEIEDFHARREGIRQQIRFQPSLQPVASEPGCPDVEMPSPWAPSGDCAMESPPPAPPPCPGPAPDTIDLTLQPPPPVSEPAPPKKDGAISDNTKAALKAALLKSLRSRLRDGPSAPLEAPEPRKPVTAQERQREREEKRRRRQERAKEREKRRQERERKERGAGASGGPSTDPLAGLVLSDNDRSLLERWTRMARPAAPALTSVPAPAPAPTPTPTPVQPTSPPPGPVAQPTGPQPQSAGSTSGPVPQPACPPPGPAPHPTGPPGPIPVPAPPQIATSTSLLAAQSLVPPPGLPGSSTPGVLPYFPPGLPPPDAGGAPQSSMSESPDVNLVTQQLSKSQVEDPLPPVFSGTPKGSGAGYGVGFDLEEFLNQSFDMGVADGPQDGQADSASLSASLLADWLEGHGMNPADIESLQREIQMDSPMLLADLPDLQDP
Cyclin-dependent kinase 6 (Homo sapiens), sequence (Q00534 whole entry): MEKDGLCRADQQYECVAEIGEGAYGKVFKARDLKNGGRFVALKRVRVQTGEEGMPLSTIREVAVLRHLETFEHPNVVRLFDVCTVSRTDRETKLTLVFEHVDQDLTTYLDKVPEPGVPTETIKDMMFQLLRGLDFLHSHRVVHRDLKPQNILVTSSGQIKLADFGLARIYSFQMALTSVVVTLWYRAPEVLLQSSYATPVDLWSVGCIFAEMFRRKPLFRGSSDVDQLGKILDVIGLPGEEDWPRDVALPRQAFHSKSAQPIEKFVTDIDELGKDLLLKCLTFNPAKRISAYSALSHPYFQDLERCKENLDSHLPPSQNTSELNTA
Cyclin-dependent kinase 4 (Homo sapiens), sequence (P11802 whole entry): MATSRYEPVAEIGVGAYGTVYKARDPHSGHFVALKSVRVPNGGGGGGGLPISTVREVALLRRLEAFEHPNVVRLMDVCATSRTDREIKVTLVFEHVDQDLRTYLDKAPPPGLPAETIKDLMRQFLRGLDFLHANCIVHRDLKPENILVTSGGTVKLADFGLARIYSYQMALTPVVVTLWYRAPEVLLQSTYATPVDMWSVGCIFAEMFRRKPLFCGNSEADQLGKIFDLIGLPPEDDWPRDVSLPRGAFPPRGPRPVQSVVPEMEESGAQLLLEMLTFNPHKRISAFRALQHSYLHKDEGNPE

Row | IC50 [1] | Ki [2] | Ki [3] | IC50 [4] | SMILES | other results
1 | 4600 nM | 56.9 nM | 278 nM | 4300 nM | NC(=O)c1cc2c(-c3ccc(C(=O)NCc4ccccc4)s3)cccc2s1 | 
2 | 4400 nM | 9.9 nM | 65.3 nM | 3400 nM | NC(=O)c1cc2c(-c3ccc(C(=O)NCc4ccccc4O)s3)cccc2s1 | 
3 |  | 93.4 nM | 1450 nM |  | NC(=O)c1cc2c(-c3ccc(C(=O)NCc4cccc(N)c4)s3)c(Cl)ccc2s1 | 
4 |  | 95.1 nM | 980 nM |  | NC(=O)c1cc2c(-c3ccc(C(=O)NCC4CC4)s3)cccc2s1 | 
5 |  | 160 nM | 670 nM |  | NC(=O)c1cc2c(-c3ccc(C(=O)NC4CC4)s3)cccc2s1 | 
6 |  | 359 nM | 4400 nM |  | NC(=O)c1cc2c(-c3ccc(C(=O)NCc4cccc(Cl)c4)s3)cccc2s1 | 
7 |  | 118 nM | 448 nM |  | NC(=O)c1cc2c(-c3ccc(C(=O)NCCn4cc(CO)nn4)s3)cccc2s1 | 
8 |  | 119 nM | 660 nM |  | NC(=O)c1cc2c(-c3ccc(C(=O)NCc4cccc(N)c4)s3)cccc2s1 | 
9 |  | 491 nM | 2310 nM |  | NC(=O)c1cc2c(-c3ccc(C(=O)NCc4cccc(N)c4)s3)ccc(F)c2s1 | 
10 | 2700 nM | 26.8 nM | 187 nM | 3600 nM | NC(=O)c1cc2c(-c3ccc(C(=O)NCc4ccc(N)cc4)s3)cccc2s1 | 
11 |  | 105 nM | 1130 nM |  | NC(=O)c1cc2c(-c3ccc(C(=O)NCc4cccc(O)c4)s3)c(Cl)ccc2s1 | 
12 | 1100 nM | 67.8 nM | 238 nM | 800 nM | NC(=O)c1cc2c(-c3ccc(C(=O)NCc4ccccc4N)s3)cccc2s1 | Activity (HeLa [5]): Active; viability at 30 µM (HeLa [6]): > 75%; inhibition [7]: 38%; Ki [8]: 1300 nM
13 | 2000 nM | 85.9 nM | 642 nM | 1800 nM | NC(=O)c1cc2c(-c3ccc(C(=O)NCc4ccnc(Cl)c4)s3)cccc2s1 | inhibition [9]: > 35%; inhibition [10]: > 35%; inhibition [11]: > 35%; inhibition [12]: > 35%; inhibition [13]: > 35%; inhibition [14]: > 35%; inhibition [15]: > 35%; inhibition [16]: > 35%; inhibition [17]: > 35%; inhibition [18]: > 35%; inhibition [19]: > 35%; inhibition [20]: > 35%; inhibition [21]: > 35%
14 |  | 85.3 nM | 1180 nM |  | NC(=O)c1cc2c(-c3ccc(C(=O)NCc4ccccc4O)s3)c(Cl)ccc2s1 | 
15 |  | 89.5 nM | 814 nM |  | NC(=O)c1cc2c(-c3cc(N)c(C(=O)NC4CC4)s3)cccc2s1 | 
16 | 1700 nM | 36.2 nM | 577 nM | 700 nM | NC(=O)c1cc2c(-c3ccc(C(=O)NCc4ccccc4N)s3)c(Cl)ccc2s1 | 
17 |  | 101 nM | 730 nM |  | NC(=O)c1cc2c(-c3ccc(C(=O)N[C@H](CO)Cc4ccccc4)s3)cccc2s1 | 
18 |  | 178 nM | 1100 nM |  | NC(=O)c1cc2c(-c3ccc(C(=O)NC4CCOCC4)s3)cccc2s1 | 
19 |  | 73 nM | 370 nM |  | NC(=O)c1cc2c(-c3ccc(C(=O)NCc4cccc(O)c4)s3)cccc2s1 | 
